Measured values taken from patent US7834148B2, “Protein phosphorylation imaging systems, methods of making phosphorylation imaging systems, and methods of use thereof” (Stanford University, priority 2006, dated 2010).

Experiments:
[1] = tested on: Akt kinase activity; test: Akt kinase sensor complemented FL activity, luminometer assay in transiently transfected 293T cells; assay type: cell-based, human
Procedure: Next the hypothesis that activation of Akt activity would lead to increased phosphorylation of AKM and interaction with FHA2 in AS1T was tested, and subsequent inhibition of split FL complementation. 293T cells transiently transfected with AS1T and AS1A were treated with platelet derived growth factor (PDGF) for 30 minutes prior to analysis of FL activity.
To increase the dynamic range of AS1T for indirect monitoring of Akt kinase activity, the original FL fragments (NFL: 1-416/CFL: 398-550) were replaced with the optimal split FL sites (1-398/394-550) as AS2T. The corresponding FL fragments in AS1A were also replaced to create AS2A. 293T cells transiently transfected with AS2T or AS2A were treated with different concentrations of LY or carrier control for 24 hours prior to analysis of FL activity. […] To determine if the specificity of AS2 can be restored by using more rigid linkers, the flexible (G4S)3 linkers were replaced with (EAAAR)3 used for intramolecular folding sensors previously used to studying FRB/FKBP12 interactions. However, there was a loss of specificity in response to LY.
(§1) Transfections were performed in 80% confluent 24 hr-old cultures of 293T and BT474 cells. For transient transfection, 250 ng/well of pcDNA molar equivalent of each AS1A and AS1T were used in 12-well tissue culture plates and 5 μl Lipofectamine 2000 was used per transfection following the manufacturer's instructions. 5 ng of pcDNA3.1(+) vector expressing full length RL was co-transfected per well to normalize for transfection efficiency. […]
(§2) In brief, transfected cells were lysed in 200 μl of ice-cold 1× passive lysis buffer supplied by Promega and were shaken for 15 mins on ice. […] RL activity was determined as described for FL activity, except 0.5 μg of coelenterazine dissolved in 100 μl of was used. Protein concentrations in cell lysates were determined by Bradford Assay (Bio-Rad). FL activities were normalized for protein content and for transfection efficiency using RL activity and expressed as relative light units per microgram protein per minute of counting (RLU/μg protein/min).

[2] = tested on: Akt kinase activity; test: Akt kinase sensor complemented FL activity, bioluminescence imaging of intact 293T/AS1T and 293T/AS1A stable cells; assay type: cell-based, human; settings: AS1T sensor
Procedure: Complemented FL activity at each time point was determined by bioluminescence imaging of intact cells by addition of D-luciferin (FIG. 7a), prior to normalization for protein content (FIG. 7b).
FL activities in intact cells were determined by bioluminescence imaging of intact cells as described above. Cells were lysed in 1% NP40 buffer (Cell Signaling, Beverly, Mass.) for 15 mins on ice followed by centrifugation at 1×10^4 g to remove cell debris. Protein concentrations were determined by Biorad protein Dc assay (Biorad). FL activities were normalized to protein content and then to that of carrier control treated cells and expressed as normalized FL activity±standard error of means (S.E.M.)

[3] = tested on: Akt kinase activity; test: Akt kinase sensor (AS1T/AS1A) complemented FL activity, luminometer assay in transiently transfected BT474 cells; assay type: cell-based, human; settings: BT474 transiently transfected with AS1T, 24 hours, at 50 μM, relative to carrier control, p<0.05
Procedure: FL activity was determined by luminometer assays using cell lysates and normalized for protein content and transfection efficiency. LY treatment of BT474 cells transiently transfected with AS1T led to a dose dependent increase in FL activity in (1.3-fold maximum increase, p<0.05 at 50 μM, relative to carrier control treated cells).
as §1, §2

[4] = tested on: insulin receptor substrate 1 (IRS-1) phosphorylation; test: Bioluminescence CCD imaging of split Firefly Luciferase IRS-1 phosphorylation sensor, CHO-IR cells implanted in living mice; assay type: in vivo, nude mice; settings: mice with implanted sensor-transfected CHO-IR cells, 4 IU s.c. in twelve hour intervals, imaged 24 hours later
Procedure: FIG. 5 illustrates a bioluminescence CCD imaging of a split Firefly Luciferase based Insulin Receptor Substrate 1 (IRS-1) phosphorylation sensor in a living mouse.
Four nude mice were implanted with 5 million CHO-IR cells transiently transfected with the fusion split firefly IRS-1 phosphorylation sensor with linker (EAAAR)2 and also with 5 million CHO-IR mock-transfected cells at two separate sites. The mice were imaged using D-Luciferin (3 mg i.p.) with a CCD camera. Two mice were then given 4 IU human long-acting insulin (s.c.) in twelve hour intervals, and two were not given insulin and all four were imaged again 24 hours later. Consistent results were obtained in the 2 mice in each group with exposure to insulin leading to an increase in signal (˜5-fold induction) and lack of insulin exposure leading to minimal change (˜1.3 fold induction).

[5] = tested on: insulin receptor substrate 1 (IRS-1) phosphorylation; test: Renilla Luciferase based IRS-1 phosphorylation sensor, luminometer assay in transfected CHO-IR cells; assay type: cell-based; settings: 24 h incubation, insulin 0, 25, 50 and 100 nM
Procedure: FIG. 3 is a graph of the activation of the Renilla Luciferase based IRS-1 phosphorylation sensor as a function of Insulin concentration. Luminometer assay result of CHO-IR cells transfected with a phosphorylation sensor vector and assayed after 24 h of incubation with the addition of different concentrations of insulin (0, 25, 50 and 100 nM).
The IRS-1 phosphorylation sensor was tested based on split renilla and split Firefly Luciferase in transient transfection assays in cell culture with and without insulin. The single fusion vector (FIG. 2) was utilized with split Renilla Luciferase (split site 229, non-self complementing), with a semi-rigid peptide ((EAAAR)2 (SEQ ID NO: 36)) through screening of different peptides. The phosphorylation domain was the PTB peptide and was chosen to be an 13 amino acid peptide (SEQ ID NO: 28) including Y941 (tyrosine at position 941 of IRS-1). The substrate recognition domain was chosen to be the SH2 domain of PI3 Kinase. The vector constructed was transiently transfected in CHO-IR (expressing the insulin receptor) and 293T cells (not expressing the insulin receptor).

[6] = tested on: insulin receptor substrate 1 (IRS-1) phosphorylation; test: Firefly Luciferase based IRS-1 phosphorylation sensor in transfected CHO-IR cells; assay type: cell-based; settings: presence of insulin compared to no insulin exposure
Excerpt: FIG. 4 is a graph of the activation of the Firefly Luciferase based IRS-1 phosphorylation sensor as a function of Insulin exposure. Results of CHO-IR cells transfected and co-transfected with a self-complementing Firefly Luciferase based IRS-1 sensor used for studying insulin mediated IRS-1 phosphorylation. A two-vector system, single fusion vector with and without a semi-rigid linker were all compared. Greater absolute signal is seen with the fusion vector strategies.
Next, constructs were made using self-complementing split fragments of Firefly Luciferase with a semi-rigid linker or without any linker, and these were compared with two separate vectors (non-fusion approach) in CHO-IR cells in the presence and absence of insulin (FIG. 3). The results of these studies show signal from all three vectors in the presence of insulin, but the highest absolute signal is from the two fusion vectors. Furthermore, for the two fusion vectors the background signal is lowest (prior to insulin exposure) when using the fusion vector with a semi-rigid linker.
The fusion strategy increases absolute signal as compared to using two separate vectors. Furthermore, using a semi-rigid linker decreases background signal in the fusion vector strategy. […]

With `O=c1cc(N2CCOCC2)oc2c(-c3ccccc3)cccc12` [LY, LY294002] the “increase in FL activity with AS2T or AS2A compared to AS1T or AS1A” value ([1]; 293T transiently transfected, LY for 24 hours, unpublished data) was 2 fold, the “maximum induction (dynamic range of AS1T)” value [2] was 4 fold and the “maximum increase in FL activity” value [3] was 1.3 fold.
With platelet derived growth factor [PDGF] the FL activity ([1]; 293T transiently transfected with AS1A, 30 minutes treatment, p>0.05) was “did not significantly decrease” and the “decrease in FL activity” value ([1]; 293T transiently transfected with AS1T, 30 minutes treatment, vs carrier control, p<0.05) was 60%.
For insulin, the “increase in signal (induction)” value [4] was roughly 5 fold induction, the “complemented Renilla Luciferase activity” value [5] was “concentration dependent increase” and the “signal of split bioluminescence reporter IRS-1 sensor” value [6] was “increased signal”.
